Test results from ChEMBL document CHEMBL1781873, “Synthesis and antibacterial property of pyrrolopyrano quinolinones and pyrroloquinolines” (2011).
In brackets after ≈: the same amount, converted by molar mass. Activity calls are given as the source filed them. The calls are words filed in the database; no cut-off is given here.

Columns and labels:
Salmonella typhi [1] = assay: Antibacterial activity against Salmonella typhi at 10 ug after 24 hrs by disc diffusion assay; assay type: functional, Salmonella enterica subsp. enterica serovar Typhi; conditions: Salmonella enterica, read-out: IZ
Salmonella typhi [2] = assay: Antibacterial activity against Salmonella typhi at 15 ug after 24 hrs by disc diffusion assay; assay type: functional, Salmonella enterica subsp. enterica serovar Typhi; conditions: Salmonella enterica, read-out: IZ
Salmonella typhi [3] = assay: Antibacterial activity against Salmonella typhi at 20 ug after 24 hrs by disc diffusion assay; assay type: functional, Salmonella enterica subsp. enterica serovar Typhi; conditions: Salmonella enterica, read-out: IZ
Salmonella typhi [4] = assay: Antibacterial activity against Salmonella typhi at 25 ug after 24 hrs by disc diffusion assay; assay type: functional, Salmonella enterica subsp. enterica serovar Typhi; conditions: Salmonella enterica, read-out: IZ
Bacillus subtilis [5] = assay: Antibacterial activity against Bacillus subtilis at 10 ug after 24 hrs by disc diffusion assay; assay type: functional; conditions: read-out: IZ
Bacillus subtilis [6] = assay: Antibacterial activity against Bacillus subtilis at 15 ug after 24 hrs by disc diffusion assay; assay type: functional; conditions: read-out: IZ
Bacillus subtilis [7] = assay: Antibacterial activity against Bacillus subtilis at 20 ug after 24 hrs by disc diffusion assay; assay type: functional; conditions: read-out: IZ
Bacillus subtilis [8] = assay: Antibacterial activity against Bacillus subtilis at 25 ug after 24 hrs by disc diffusion assay; assay type: functional; conditions: read-out: IZ
Escherichia coli [9] = assay: Inhibition of Escherichia coli DNA gyrase assessed as inhibition of DNA supercoiling activity using pBR322 DNA as substrate at […] after 3 hrs by agarose gel electrophoresis
Escherichia coli [10] = assay: Inhibition of Escherichia coli DNA gyrase -mediated DNA relaxation using pBR322 DNA as substrate at […] after 1 hrs by agarose gel electrophoresis
Escherichia coli [11] = assay: Inhibition of DNA gyrase mRNA expression in Escherichia coli measured up to 24 hrs by RT-PCR; assay type: functional, organism-based
Staphylococcus aureus [12] = assay: Antibacterial activity against Staphylococcus aureus after 18 to 20 hrs by broth micro dilution assay; assay type: functional
Escherichia coli [13] = assay: Antibacterial activity against Escherichia coli after 18 to 20 hrs by broth micro dilution assay; assay type: functional
Klebsiella pneumoniae [14] = assay: Antibacterial activity against Klebsiella pneumoniae after 18 to 20 hrs by broth micro dilution assay; assay type: functional
Pseudomonas aeruginosa [15] = assay: Antibacterial activity against Pseudomonas aeruginosa after 18 to 20 hrs by broth micro dilution assay; assay type: functional
Salmonella typhi [16] = assay: Antibacterial activity against Salmonella typhi after 18 to 20 hrs by broth micro dilution assay; assay type: functional, Salmonella enterica subsp. enterica serovar Typhi; conditions: Salmonella enterica
Bacillus subtilis [17] = assay: Antibacterial activity against Bacillus subtilis after 18 to 20 hrs by broth micro dilution assay; assay type: functional
Staphylococcus aureus [18] = assay: Antibacterial activity against Staphylococcus aureus at 5 ug after 24 hrs by disc diffusion assay; assay type: functional; conditions: read-out: IZ
Staphylococcus aureus [19] = assay: Antibacterial activity against Staphylococcus aureus at 10 ug after 24 hrs by disc diffusion assay; assay type: functional; conditions: read-out: IZ
Staphylococcus aureus [20] = assay: Antibacterial activity against Staphylococcus aureus at 15 ug after 24 hrs by disc diffusion assay; assay type: functional; conditions: read-out: IZ
Staphylococcus aureus [21] = assay: Antibacterial activity against Staphylococcus aureus at 20 ug after 24 hrs by disc diffusion assay; assay type: functional; conditions: read-out: IZ
Staphylococcus aureus [22] = assay: Antibacterial activity against Staphylococcus aureus at 25 ug after 24 hrs by disc diffusion assay; assay type: functional; conditions: read-out: IZ
Escherichia coli [23] = assay: Antibacterial activity against Escherichia coli at 5 ug after 24 hrs by disc diffusion assay; assay type: functional; conditions: read-out: IZ
Escherichia coli [24] = assay: Antibacterial activity against Escherichia coli at 10 ug after 24 hrs by disc diffusion assay; assay type: functional; conditions: read-out: IZ
Escherichia coli [25] = assay: Antibacterial activity against Escherichia coli at 15 ug after 24 hrs by disc diffusion assay; assay type: functional; conditions: read-out: IZ
Escherichia coli [26] = assay: Antibacterial activity against Escherichia coli at 20 ug after 24 hrs by disc diffusion assay; assay type: functional; conditions: read-out: IZ
Escherichia coli [27] = assay: Antibacterial activity against Escherichia coli at 25 ug after 24 hrs by disc diffusion assay; assay type: functional; conditions: read-out: IZ
Pseudomonas aeruginosa [28] = assay: Antibacterial activity against Pseudomonas aeruginosa at 5 ug after 24 hrs by disc diffusion assay; assay type: functional; conditions: read-out: IZ
Pseudomonas aeruginosa [29] = assay: Antibacterial activity against Pseudomonas aeruginosa at 10 ug after 24 hrs by disc diffusion assay; assay type: functional; conditions: read-out: IZ
Pseudomonas aeruginosa [30] = assay: Antibacterial activity against Pseudomonas aeruginosa at 15 ug after 24 hrs by disc diffusion assay; assay type: functional; conditions: read-out: IZ
Pseudomonas aeruginosa [31] = assay: Antibacterial activity against Pseudomonas aeruginosa at 20 ug after 24 hrs by disc diffusion assay; assay type: functional; conditions: read-out: IZ
Pseudomonas aeruginosa [32] = assay: Antibacterial activity against Pseudomonas aeruginosa at 25 ug after 24 hrs by disc diffusion assay; assay type: functional; conditions: read-out: IZ
Klebsiella pneumoniae [33] = assay: Antibacterial activity against Klebsiella pneumoniae at 5 ug after 24 hrs by disc diffusion assay; assay type: functional; conditions: read-out: IZ
Klebsiella pneumoniae [34] = assay: Antibacterial activity against Klebsiella pneumoniae at 10 ug after 24 hrs by disc diffusion assay; assay type: functional; conditions: read-out: IZ
Klebsiella pneumoniae [35] = assay: Antibacterial activity against Klebsiella pneumoniae at 15 ug after 24 hrs by disc diffusion assay; assay type: functional; conditions: read-out: IZ
Klebsiella pneumoniae [36] = assay: Antibacterial activity against Klebsiella pneumoniae at 20 ug after 24 hrs by disc diffusion assay; assay type: functional; conditions: read-out: IZ
Klebsiella pneumoniae [37] = assay: Antibacterial activity against Klebsiella pneumoniae at 25 ug after 24 hrs by disc diffusion assay; assay type: functional; conditions: read-out: IZ
Salmonella typhi [38] = assay: Antibacterial activity against Salmonella typhi at 5 ug after 24 hrs by disc diffusion assay; assay type: functional, Salmonella enterica subsp. enterica serovar Typhi; conditions: Salmonella enterica, read-out: IZ

CCC1[C@@H]2Nc3ccc(Br)cc3C(c3ccccc3)[C@H]2CN1OS(=O)(=O)c1ccc(C)cc1 (some centres not stated) showed a zone of inhibition at 10 µg/disc (Salmonella typhi [1]) of 16 mm, a zone of inhibition at 15 µg/disc (Salmonella typhi [2]) of 18 mm and a zone of inhibition at 20 µg/disc (Salmonella typhi [3]) of 22 mm. It also gave a zone of inhibition at 25 µg/disc (Salmonella typhi [4]) of 24 mm, a zone of inhibition at 10 µg/disc (Bacillus subtilis [5]) of 8 mm and a zone of inhibition at 15 µg/disc (Bacillus subtilis [6]) of 9 mm. The zone of inhibition at 20 µg/disc (Bacillus subtilis [7]) was 10 mm, the zone of inhibition at 25 µg/disc (Bacillus subtilis [8]) was 11 mm and the “DNA gyrase inhibition (active/inactive)” value (Escherichia coli [9]) was “Active”. For the same molecule, the inhibition (Escherichia coli [10]) was “Active”, the “inhibition of gyrase mRNA expression (active/not active)” value (Escherichia coli [11]) was “inactive” and the MIC50 (Staphylococcus aureus [12]) was 0.25 µg/mL (≈ 0.474 µM). It also gave an MIC90 (Staphylococcus aureus [12]) of 0.5 µg/mL (≈ 0.948 µM), an MIC50 (Escherichia coli [13]) of 0.25 µg/mL (≈ 0.474 µM) and an MIC90 (Escherichia coli [13]) of 0.5 µg/mL (≈ 0.948 µM). It also gave an MIC50 (Klebsiella pneumoniae [14]) of 0.25 µg/mL (≈ 0.474 µM), an MIC90 (Klebsiella pneumoniae [14]) of 0.5 µg/mL (≈ 0.948 µM) and an MIC50 (Pseudomonas aeruginosa [15]) of 0.25 µg/mL (≈ 0.474 µM). It also gave an MIC90 (Pseudomonas aeruginosa [15]) of 0.5 µg/mL (≈ 0.948 µM), an MIC50 (Salmonella typhi [16]) of 0.25 µg/mL (≈ 0.474 µM) and an MIC90 (Salmonella typhi [16]) of 0.5 µg/mL (≈ 0.948 µM). It also gave an MIC50 (Bacillus subtilis [17]) of 0.25 µg/mL (≈ 0.474 µM), an MIC90 (Bacillus subtilis [17]) of 0.5 µg/mL (≈ 0.948 µM) and a zone of inhibition at 5 µg/disc (Staphylococcus aureus [18]) of 20 mm. The zone of inhibition at 10 µg/disc (Staphylococcus aureus [19]) was 24 mm, the zone of inhibition at 15 µg/disc (Staphylococcus aureus [20]) was 26 mm and the zone of inhibition at 20 µg/disc (Staphylococcus aureus [21]) was 30 mm. It also gave a zone of inhibition at 25 µg/disc (Staphylococcus aureus [22]) of 36 mm, a zone of inhibition at 5 µg/disc (Escherichia coli [23]) of 12 mm and a zone of inhibition at 10 µg/disc (Escherichia coli [24]) of 14 mm. It also gave a zone of inhibition at 15 µg/disc (Escherichia coli [25]) of 16 mm, a zone of inhibition at 20 µg/disc (Escherichia coli [26]) of 22 mm and a zone of inhibition at 25 µg/disc (Escherichia coli [27]) of 23 mm. It also gave a zone of inhibition at 5 µg/disc (Pseudomonas aeruginosa [28]) of 24 mm, a zone of inhibition at 10 µg/disc (Pseudomonas aeruginosa [29]) of 26 mm and a zone of inhibition at 15 µg/disc (Pseudomonas aeruginosa [30]) of 28 mm. For the same molecule, the zone of inhibition at 20 µg/disc (Pseudomonas aeruginosa [31]) was 34 mm, the zone of inhibition at 25 µg/disc (Pseudomonas aeruginosa [32]) was 36 mm and the zone of inhibition at 5 µg/disc (Klebsiella pneumoniae [33]) was 10 mm. For the same molecule, the zone of inhibition at 10 µg/disc (Klebsiella pneumoniae [34]) was 14 mm, the zone of inhibition at 15 µg/disc (Klebsiella pneumoniae [35]) was 16 mm and the zone of inhibition at 20 µg/disc (Klebsiella pneumoniae [36]) was 24 mm. It also gave a zone of inhibition at 25 µg/disc (Klebsiella pneumoniae [37]) of 26 mm and a zone of inhibition at 5 µg/disc (Salmonella typhi [38]) of 10 mm.

CCC1[C@H]2c3c(n(C)c4ccccc4c3=O)OC(c3ccccc3)[C@@H]2CN1OS(=O)(=O)c1ccc(C)cc1 (mixture of isomers) was tested, and the zone of inhibition at 10 µg/disc (Salmonella typhi [1]) was 16 mm, the zone of inhibition at 15 µg/disc (Salmonella typhi [2]) was 18 mm and the zone of inhibition at 20 µg/disc (Salmonella typhi [3]) was 22 mm. It also gave a zone of inhibition at 25 µg/disc (Salmonella typhi [4]) of 24 mm, a zone of inhibition at 15 µg/disc (Bacillus subtilis [6]) of 6 mm and a zone of inhibition at 20 µg/disc (Bacillus subtilis [7]) of 7 mm. The zone of inhibition at 25 µg/disc (Bacillus subtilis [8]) was 9 mm, the “DNA gyrase inhibition (active/inactive)” value (Escherichia coli [9]) was “Active” and the inhibition (Escherichia coli [10]) was “Active”. The “inhibition of gyrase mRNA expression (active/not active)” value (Escherichia coli [11]) was “Active”, the MIC50 (Staphylococcus aureus [12]) was 128 µg/mL and the MIC90 (Staphylococcus aureus [12]) was 128 µg/mL. It also gave an MIC50 (Escherichia coli [13]) of 128 µg/mL, an MIC90 (Escherichia coli [13]) of 128 µg/mL and an MIC50 (Klebsiella pneumoniae [14]) of 128 µg/mL. The MIC90 (Klebsiella pneumoniae [14]) was 128 µg/mL, the MIC50 (Pseudomonas aeruginosa [15]) was 128 µg/mL and the MIC90 (Pseudomonas aeruginosa [15]) was 128 µg/mL. The MIC50 (Salmonella typhi [16]) was 128 µg/mL, the MIC90 (Salmonella typhi [16]) was 128 µg/mL and the MIC50 (Bacillus subtilis [17]) was 128 µg/mL. The MIC90 (Bacillus subtilis [17]) was 128 µg/mL, the zone of inhibition at 5 µg/disc (Staphylococcus aureus [18]) was 20 mm and the zone of inhibition at 10 µg/disc (Staphylococcus aureus [19]) was 24 mm. The zone of inhibition at 15 µg/disc (Staphylococcus aureus [20]) was 26 mm, the zone of inhibition at 20 µg/disc (Staphylococcus aureus [21]) was 30 mm and the zone of inhibition at 25 µg/disc (Staphylococcus aureus [22]) was 36 mm. For the same molecule, the zone of inhibition at 5 µg/disc (Escherichia coli [23]) was 12 mm, the zone of inhibition at 10 µg/disc (Escherichia coli [24]) was 14 mm and the zone of inhibition at 15 µg/disc (Escherichia coli [25]) was 16 mm. The zone of inhibition at 20 µg/disc (Escherichia coli [26]) was 22 mm, the zone of inhibition at 25 µg/disc (Escherichia coli [27]) was 23 mm and the zone of inhibition at 5 µg/disc (Pseudomonas aeruginosa [28]) was 10 mm. The zone of inhibition at 10 µg/disc (Pseudomonas aeruginosa [29]) was 14 mm, the zone of inhibition at 15 µg/disc (Pseudomonas aeruginosa [30]) was 16 mm and the zone of inhibition at 20 µg/disc (Pseudomonas aeruginosa [31]) was 20 mm. The zone of inhibition at 25 µg/disc (Pseudomonas aeruginosa [32]) was 23 mm, the zone of inhibition at 5 µg/disc (Klebsiella pneumoniae [33]) was 20 mm and the zone of inhibition at 10 µg/disc (Klebsiella pneumoniae [34]) was 26 mm. The zone of inhibition at 15 µg/disc (Klebsiella pneumoniae [35]) was 30 mm, the zone of inhibition at 20 µg/disc (Klebsiella pneumoniae [36]) was 34 mm and the zone of inhibition at 25 µg/disc (Klebsiella pneumoniae [37]) was 36 mm. For the same molecule, the zone of inhibition at 5 µg/disc (Salmonella typhi [38]) was 10 mm.
